Data published in patent US3939204A, “Radioactive functional diagnostic agents” (priority 1972, dated 1976).
Structures can show the parent of a compound that is named as a salt.

Legend:
[1] = distribution in the body as function of time after intravenous administration, measured by scinticamera; format: in vivo, human; details: for Time of Appearance in Gallbladder / Time of Appearance in Intestine / Blood T 1/2 / Liver T 1/2 / Maximum Liver Accumulation: approximately 0.25 millicurie per injection; for Blood T 1/2: elimination from blood into liver cells; for Liver T 1/2: elimination from liver cells into bile ducts and gallbladder; for Maximum Liver Accumulation: time of maximum accumulation
Description: These compounds were tested intravenously on humans. The total quantity of radioactivity per injection of the respectively injected aqueous test solution was approximately 0.25 millicurie in each instance.
The distribution in the body as function of time after administration was measured by scinticamera in the usual manner.

[2] = background statement in words; cited from earlier work

Row | SMILES | Time of Appearance in Gallbladder ([1]; humans, intravenous) | Time of Appearance in Intestine ([1]; humans, intravenous) | Blood T 1/2 ([1]; humans, intravenous) | Liver T 1/2 ([1]; humans, intravenous) | Maximum Liver Accumulation ([1]; humans, intravenous) | enterohepatic cycle (reabsorption from the intestine into the bloodstream) ([1]; humans, intravenous, in words) | liver passage (from T 1/2 values) ([1]; humans, intravenous, in words) | times of appearance in the intestine and gallbladder, compared with B and C ([1]; humans, intravenous, in words) | concomitant gallbladder representation ([1]; patients having a healthy liver) | elimination from the liver [2] | maximum accumulation in the liver [2]
1 | O=C(COCC(=O)Nc1c(I)cc(I)c(C(=O)O)c1I)Nc1c(I)cc(I)c(C(=O)O)c1I [A, diglycolic acid bis(3-carboxy-2,4,6-triiodoanilide)-131-iodine N-methylglucamine salt] | 25.5 min | 14.6 min | 3.22 min | 3.19 min | 16.5 min | absence of an enterohepatic cycle | markedly faster liver passage | markedly shorter than in the comparison substances B and C | a concomitant gallbladder representation is obtained | – | –
2 | O=C1OC2(c3cc(I)c(O)c(I)c3Oc3c2cc(I)c(O)c3I)c2c(Cl)c(Cl)c(Cl)c(Cl)c21 [B, tetrachlorotetraiodofluorescein-131-iodine sodium salt] | 45 min | 45 min | 8.14 min | 10.24 min | 30 min | – | – | – | – | after a longer period of time | after a longer period of time
